Results from PMC7272100 (PLoS ONE, 2020).

Key:
MDM2 (17–125) = conditions: p53 (1–73), besides helix region (18–26); ref [70]; cited from earlier work
MDM2-p53 complex = assay: HSQC-NMR competitive binding experiment; parameters: species or system human; conditions: unlabeled p53 added to 15N-labeled MDM2, 1:1, pH 7.2
Protocol: HSQC- NMR competitive binding experiment
All the experiments were carried out in the NMR buffer containing 20 mM Tris-HCl, 15 mM NaCl, 20 mM CaCl2, 20 mM DTT, 0.1% NaN3, and 10% D2O; pH 7.2.

[1] = Stability of peptides in cells (inferred from WST-1 assay); conditions: deduced from WST-1 results after 48 hours of incubation
HeLa cells = conditions: N-terminal fluorescein tagged, even after five hours; ref [86]; cited from earlier work
Source text: [86] […] [85] […] [ ...

[2] = HIV-TAT alone; ref [79]; cited from earlier work
Source text: [79] […] The (LLKK)3 imparts an amphiphilic α-helical conformation to the peptide that disrupts the cellular membranes. […] [81] Altogether it can be inferred that the TAT sequence has a very minimal effect to the confirmation of the conjugated partner under consideratio ...

[3] = ref [77]; cited from earlier work
Source text: We selected residues from 76 to 92 (17 residues) for our peptide construction.

[4] = system: various cell lines including MCF-7; parameters: method as in PMID 19914216; conditions: ref [85], cited from earlier work
[5] = system: phosphorylated p53 N-terminus; conditions: single-site phosphorylation, fluorescence anisotropy; ref [51]; cited from earlier work
Source text: (§1) With a helix–loop–helix pattern, these proteins are site-specific and form homo and heterodimers. These proteins interact with copper, zinc, and calcium ions, and calcium-binding facilitates a variety of extracellular and intracellular governing consequences of these proteins. […] Further, it was also found to connect with the p53 tetrameriza ...

[6] = system: MDM2 N- terminal domain (2–125); conditions: ref [52]; cited from earlier work
Source text: as §1

[7] = system: p53 tetramerization domain (residues, 325–355); conditions: ref [49]; cited from earlier work
Source text: as §1

[8] = system: C-terminal domain (residues, 293–393); conditions: monomeric fragment versus tetrameric form; ref [50]; cited from earlier work
Source text: as §1

[9] = system: p53 transactivation domain (residues, 1–57); conditions: fluorescence anisotropy; ref [50]; cited from earlier work
Source text: as §1

[10] = system: p53 peptide (residues, 367–393); conditions: ref [49]; cited from earlier work
Source text: as §1

[11] = molecular target: T1, p53-TAD (residues 1-73), N-terminal domain of p53 (UniProt P04637 1-73); assay: other fluorescence titration; tryptophan fluorescence of p53 (1-73), excitation 295 nm; Peptide 1 0 to 12.0 uM added to 2 uM p53; 20 mM Tris-HCl, 15 mM NaCl, 20 mM CaCl2, 20 mM DTT, 0.1% NaN3, pH 7.2; conditions: both partners purified
T1 construct: cleaved protein of 8.6 kDa; plasmid a gift of G. Daughdrill; Used unlabelled or 15N-labelled; also called p53 (1-73); p53 N-terminal domain; source: bacterial cells in M9 media, purified (Ni-NTA, thrombin digestion, Superdex 75)
T1 sequence (P04637 1-73): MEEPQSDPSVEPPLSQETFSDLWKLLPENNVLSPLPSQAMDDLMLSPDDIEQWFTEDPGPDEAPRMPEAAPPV

In the case of p53 (1–73): p53-TAD (residues, 1–73), the “p53 regions able to bind to MDM2” value (MDM2 (17–125)) is given as “nascent turns 1 (40–45) and 2 (49–54) are furthermore able to bind to MDM2” and the “effect on 15N labeled MDM2 HSQC peaks” value (MDM2-p53 complex) is given as “several ^15N labeled MDM2 peaks were shifted and/or disappeared”.

With CC(C)C[C@H](NC(=O)[C@H](C)NC(=O)[C@H](C)NC(=O)[C@@H](NC(=O)[C@H](CC(C)C)NC(=O)[C@@H](NC(=O)[C@@H](NC(=O)[C@H](CCCNC(=N)N)NC(=O)[C@H](CCCNC(=N)N)NC(=O)[C@H](CCCNC(=N)N)NC(=O)[C@H](CCC(N)=O)NC(=O)[C@H](CCCNC(=N)N)NC(=O)[C@H](CCCNC(=N)N)NC(=O)[C@H](CCCCN)NC(=O)[C@H](CCCCN)NC(=O)[C@H](CCCNC(=N)N)NC(=O)CNC(=O)[C@@H](N)Cc1ccc(O)cc1)C(C)C)C(C)C)C(C)C)C(=O)N[C@H](C(=O)N[C@H](C(=O)N[C@@H](C)C(=O)N[C@@H](CS)C(=O)N[C@@H](CC(N)=O)C(=O)N[C@@H](CC(N)=O)C(=O)N[C@@H](Cc1ccccc1)C(=O)N[C@@H](Cc1ccccc1)C(=O)N[C@@H](Cc1c[nH]c2ccccc12)C(=O)N[C@@H](CCC(=O)O)C(=O)O)C(C)C)[C@@H](C)O [Peptide 1] the stability in cells [1] was “quite stable”.

In the case of YGRKKRRQRRR [TAT peptide], the “stability of TAT peptide (cytoplasmic fluorescence)” value (HeLa cells) is listed as “quite stable”, the “conformation by CD spectrum” value [2] is listed as “unstructured form” and the “delivery of heterologous proteins” value [3] is listed as “cytoplasmic delivery of heterologous proteins which was independent of the cell type”. The “cytotoxicity of TAT peptide, above 5 μM” value ([4]; above 5 μM) was 11–22% and the “cytotoxicity of TAT peptide, up to 5 μM” value ([4]; up to 5 μM) was “non-toxic”.

In the case of “S100A1: human S100A1 protein produced in BL21 (DE3) E. coli [Peptide S100A1]”, the “affinity of phosphorylated p53 N-terminus for S100A1” value [5] is listed as “increased affinity for S100A1”, the “association with MDM2 N-terminal domain (2–125)” value [6] is listed as “found to associate with the MDM2 N- terminal domain (2–125) and does not lead to the formation of a ternary complex with MDM2 and p53” and the “interaction with p53 TET domain (325–355)” value [7] is listed as “only interacted with the TET domain when its oligomerization state was lowered (monomers or dimers)”. For the same molecule, the “binding to p53 C-terminal domain (293–393)” value [8] was “could bind to the monomeric fragment of the C-terminal domain (residues, 293–393) but unable to form a complex with the tetrameric form”, the “binding to p53 transactivation domain (1–57)” value [9] was “binding of S100A1 to the p53 transactivation domain (residues, 1–57)” and the “association with p53 peptide (367–393)” value [10] was “found to associate with the p53 peptide (residues, 367–393)”.

B1: Peptide 1 (HIV-TAT + S100A1 derived peptide) (peptide)
peptide: YGRKKRRQRRRVVLVAALTVACNNFFWE
notes: HIV-TAT cell-penetrating segment derived from the TAT protein of human immunodeficiency virus; S100A1, human, C-terminal residues 76 to 92 (17 residues); 28 residues; the TAT segment stands N-terminal of the S100A1 stretch; also called fusion peptide; source: synthetic peptide, bought: Kelowna International Scientific Inc., >= 95% purity
In the case of B1, the Kd [11] is reported as about 590 nM.
